Measurements as given in the kinase profiling compilation of Christmann-Franck et al. (2016).

Tests used:
Test in all cases: KINOMEscan competition binding
Conditions in all cases: compound 10.0 µM
[1] = tested on: ABL1 (human), P00519 [T315I]
ALK (human) = ALK (human) (UniProt Q9UM73)
BTK (human) = BTK (human) (UniProt Q06187)
CAMK2A (human) = CAMK2A (human) (UniProt Q9UQM7)
CAMK4 (human) = CAMK4 (human) (UniProt Q16566)
CDK2 (human) = CDK2 (human) (UniProt P24941)
CDK7 (human) = CDK7 (human) (UniProt P50613)
CDK9 (human) = CDK9 (human) (UniProt P50750)
CSNK1G2 (human) = CSNK1G2 (human) (UniProt P78368)
DCLK1 (human) = DCLK1 (human) (UniProt O15075)
DMPK (human) = DMPK (human) (UniProt Q09013)
ERBB2 (human) = ERBB2 (human) (UniProt P04626)
FGFR3 (human) = FGFR3 (human) (UniProt P22607)
HCK (human) = HCK (human) (UniProt P08631)
IGF1R (human) = IGF1R (human) (UniProt P08069)
IKBKB (human) = IKBKB (human) (UniProt O14920)
[2] = tested on: KIT (human), P10721 [V559D/T670I]
LRRK2 (human) = LRRK2 (human) (UniProt Q5S007)
MAP2K1 (human) = MAP2K1 (human) (UniProt Q02750)
MAP3K13 (human) = MAP3K13 (human) (UniProt O43283)
MAP3K4 (human) = MAP3K4 (human) (UniProt Q9Y6R4)
MAP3K5 (human) = MAP3K5 (human) (UniProt Q99683)
MAP3K9 (human) = MAP3K9 (human) (UniProt P80192)
MAPK11 (human) = MAPK11 (human) (UniProt Q15759)
MAPK8 (human) = MAPK8 (human) (UniProt P45983)
MARK3 (human) = MARK3 (human) (UniProt P27448)
MKNK2 (human) = MKNK2 (human) (UniProt Q9HBH9)
NEK1 (human) = NEK1 (human) (UniProt Q96PY6)
NUAK2 (human) = NUAK2 (human) (UniProt Q9H093)
PDGFRB (human) = PDGFRB (human) (UniProt P09619)
PIM1 (human) = PIM1 (human) (UniProt P11309)
PLK4 (human) = PLK4 (human) (UniProt O00444)
PRKCE (human) = PRKCE (human) (UniProt Q02156)
RAF1 (human) = RAF1 (human) (UniProt P04049)
RIOK2 (human) = RIOK2 (human) (UniProt Q9BVS4)
RPS6KA3 KD1 (human) = RPS6KA3 KD1 (human) (UniProt P51812)
STK11 (human) = STK11 (human) (UniProt Q15831)
STK25 (human) = STK25 (human) (UniProt O00506)
SYK (human) = SYK (human) (UniProt P43405)
TEK (human) = TEK (human) (UniProt Q02763)
ZAP70 (human) = ZAP70 (human) (UniProt P43403)

Sequence of MAPK8 (human) (P45983 whole entry, looked up): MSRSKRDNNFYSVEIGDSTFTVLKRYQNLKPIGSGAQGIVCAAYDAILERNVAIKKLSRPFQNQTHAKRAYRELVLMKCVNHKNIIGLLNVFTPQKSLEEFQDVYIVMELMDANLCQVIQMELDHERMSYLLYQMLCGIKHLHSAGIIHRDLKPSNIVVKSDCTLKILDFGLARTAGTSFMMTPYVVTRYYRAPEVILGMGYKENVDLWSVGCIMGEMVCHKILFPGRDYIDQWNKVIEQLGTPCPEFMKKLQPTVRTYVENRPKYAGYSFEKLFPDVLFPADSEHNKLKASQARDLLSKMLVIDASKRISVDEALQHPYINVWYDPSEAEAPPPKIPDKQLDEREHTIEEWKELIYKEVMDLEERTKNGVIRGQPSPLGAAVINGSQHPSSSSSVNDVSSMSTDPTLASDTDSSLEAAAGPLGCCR
Sequence of IKBKB (human) (O14920 whole entry, looked up): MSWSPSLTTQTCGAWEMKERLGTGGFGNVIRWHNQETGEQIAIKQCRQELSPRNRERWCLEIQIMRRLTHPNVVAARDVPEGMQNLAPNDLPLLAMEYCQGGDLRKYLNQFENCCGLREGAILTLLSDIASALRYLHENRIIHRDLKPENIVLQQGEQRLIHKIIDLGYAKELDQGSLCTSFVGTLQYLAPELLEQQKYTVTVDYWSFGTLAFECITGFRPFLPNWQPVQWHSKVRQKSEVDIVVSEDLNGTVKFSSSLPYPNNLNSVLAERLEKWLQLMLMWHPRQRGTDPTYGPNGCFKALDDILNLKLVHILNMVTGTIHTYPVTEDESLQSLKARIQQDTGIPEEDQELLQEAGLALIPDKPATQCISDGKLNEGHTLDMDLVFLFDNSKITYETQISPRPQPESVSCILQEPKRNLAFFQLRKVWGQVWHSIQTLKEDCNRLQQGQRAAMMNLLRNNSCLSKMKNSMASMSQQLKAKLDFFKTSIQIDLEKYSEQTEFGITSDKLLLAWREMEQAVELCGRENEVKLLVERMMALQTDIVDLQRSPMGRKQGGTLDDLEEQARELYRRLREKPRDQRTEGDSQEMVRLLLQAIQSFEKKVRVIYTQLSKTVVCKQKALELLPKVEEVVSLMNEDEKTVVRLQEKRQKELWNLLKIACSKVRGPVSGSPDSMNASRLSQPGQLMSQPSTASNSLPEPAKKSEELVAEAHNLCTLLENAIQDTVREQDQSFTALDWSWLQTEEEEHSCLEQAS
Sequence of MAPK11 (human) (Q15759 whole entry, looked up): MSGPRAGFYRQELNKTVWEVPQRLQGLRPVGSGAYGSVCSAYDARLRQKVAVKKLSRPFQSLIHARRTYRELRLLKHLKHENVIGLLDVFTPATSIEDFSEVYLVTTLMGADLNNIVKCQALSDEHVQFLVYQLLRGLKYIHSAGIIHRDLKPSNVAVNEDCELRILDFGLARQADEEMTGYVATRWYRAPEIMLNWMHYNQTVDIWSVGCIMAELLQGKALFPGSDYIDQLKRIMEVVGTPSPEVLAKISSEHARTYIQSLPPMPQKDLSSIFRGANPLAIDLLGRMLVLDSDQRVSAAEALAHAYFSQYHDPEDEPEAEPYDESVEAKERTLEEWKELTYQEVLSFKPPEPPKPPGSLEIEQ
Sequence of NEK1 (human) (Q96PY6 whole entry, looked up): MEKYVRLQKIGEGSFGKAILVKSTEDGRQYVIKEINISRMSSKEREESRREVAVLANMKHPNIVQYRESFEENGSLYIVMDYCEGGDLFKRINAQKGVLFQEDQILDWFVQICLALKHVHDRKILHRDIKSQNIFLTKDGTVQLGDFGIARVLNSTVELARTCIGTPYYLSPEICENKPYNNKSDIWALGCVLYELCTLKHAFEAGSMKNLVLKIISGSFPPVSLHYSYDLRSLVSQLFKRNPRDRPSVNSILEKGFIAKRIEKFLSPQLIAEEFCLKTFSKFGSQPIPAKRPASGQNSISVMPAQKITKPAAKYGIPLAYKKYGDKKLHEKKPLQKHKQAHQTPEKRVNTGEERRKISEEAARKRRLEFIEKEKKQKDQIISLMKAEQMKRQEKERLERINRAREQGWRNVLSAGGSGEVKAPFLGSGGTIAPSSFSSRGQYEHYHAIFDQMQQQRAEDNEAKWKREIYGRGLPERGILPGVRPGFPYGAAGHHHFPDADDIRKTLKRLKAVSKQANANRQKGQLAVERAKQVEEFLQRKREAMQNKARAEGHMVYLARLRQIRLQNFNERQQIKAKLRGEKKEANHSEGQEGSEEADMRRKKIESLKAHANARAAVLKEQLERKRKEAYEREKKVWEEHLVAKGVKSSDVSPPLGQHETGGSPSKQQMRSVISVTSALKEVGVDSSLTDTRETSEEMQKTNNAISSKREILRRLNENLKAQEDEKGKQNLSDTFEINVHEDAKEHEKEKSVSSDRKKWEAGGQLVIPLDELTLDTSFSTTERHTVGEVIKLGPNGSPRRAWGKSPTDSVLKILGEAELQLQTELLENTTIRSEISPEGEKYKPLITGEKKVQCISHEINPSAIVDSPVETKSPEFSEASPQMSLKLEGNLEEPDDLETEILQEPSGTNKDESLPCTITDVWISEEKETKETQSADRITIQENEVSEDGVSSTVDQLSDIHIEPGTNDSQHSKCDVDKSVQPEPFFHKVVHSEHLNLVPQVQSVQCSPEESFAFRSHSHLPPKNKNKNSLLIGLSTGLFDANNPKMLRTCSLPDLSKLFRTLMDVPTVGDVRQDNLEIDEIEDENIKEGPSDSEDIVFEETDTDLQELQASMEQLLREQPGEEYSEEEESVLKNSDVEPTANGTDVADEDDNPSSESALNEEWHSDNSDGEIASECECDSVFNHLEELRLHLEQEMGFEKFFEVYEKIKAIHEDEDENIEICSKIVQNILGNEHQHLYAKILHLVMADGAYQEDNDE
Sequence of MAP3K5 (human) (Q99683 whole entry, looked up): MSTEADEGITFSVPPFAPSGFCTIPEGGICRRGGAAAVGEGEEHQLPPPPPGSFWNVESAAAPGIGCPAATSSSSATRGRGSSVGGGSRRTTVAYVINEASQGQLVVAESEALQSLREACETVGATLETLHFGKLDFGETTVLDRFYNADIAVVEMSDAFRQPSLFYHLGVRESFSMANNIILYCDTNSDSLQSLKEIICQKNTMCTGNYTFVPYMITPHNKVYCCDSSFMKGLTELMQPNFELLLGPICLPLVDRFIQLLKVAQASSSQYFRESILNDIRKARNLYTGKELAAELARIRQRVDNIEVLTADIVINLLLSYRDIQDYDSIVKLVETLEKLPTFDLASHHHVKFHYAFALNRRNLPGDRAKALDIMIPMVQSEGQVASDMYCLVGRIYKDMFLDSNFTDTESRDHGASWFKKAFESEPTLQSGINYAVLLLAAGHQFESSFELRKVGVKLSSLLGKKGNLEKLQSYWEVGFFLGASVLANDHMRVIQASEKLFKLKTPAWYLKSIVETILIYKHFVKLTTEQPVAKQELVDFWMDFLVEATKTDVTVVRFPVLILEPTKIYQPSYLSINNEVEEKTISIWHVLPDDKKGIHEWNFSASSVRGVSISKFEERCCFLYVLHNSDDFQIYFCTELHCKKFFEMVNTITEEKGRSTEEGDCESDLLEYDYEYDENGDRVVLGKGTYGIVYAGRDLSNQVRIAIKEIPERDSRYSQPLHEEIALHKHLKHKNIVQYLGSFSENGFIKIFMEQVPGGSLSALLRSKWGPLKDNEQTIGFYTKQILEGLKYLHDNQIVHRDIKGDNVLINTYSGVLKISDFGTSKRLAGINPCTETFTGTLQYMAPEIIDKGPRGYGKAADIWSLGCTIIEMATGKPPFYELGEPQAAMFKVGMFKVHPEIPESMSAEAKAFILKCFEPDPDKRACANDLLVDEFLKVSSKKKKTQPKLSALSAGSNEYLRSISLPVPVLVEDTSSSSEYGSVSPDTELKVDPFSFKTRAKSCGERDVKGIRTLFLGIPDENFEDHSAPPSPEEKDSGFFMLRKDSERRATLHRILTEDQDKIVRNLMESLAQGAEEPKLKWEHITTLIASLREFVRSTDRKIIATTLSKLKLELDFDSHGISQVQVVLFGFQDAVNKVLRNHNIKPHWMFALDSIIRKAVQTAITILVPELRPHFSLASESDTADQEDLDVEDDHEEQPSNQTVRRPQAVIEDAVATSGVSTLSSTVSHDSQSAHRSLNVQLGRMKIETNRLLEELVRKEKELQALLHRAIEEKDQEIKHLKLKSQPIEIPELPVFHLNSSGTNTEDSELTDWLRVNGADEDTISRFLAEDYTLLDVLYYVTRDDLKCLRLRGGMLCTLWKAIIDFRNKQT
Sequence of CDK7 (human) (P50613 whole entry, looked up): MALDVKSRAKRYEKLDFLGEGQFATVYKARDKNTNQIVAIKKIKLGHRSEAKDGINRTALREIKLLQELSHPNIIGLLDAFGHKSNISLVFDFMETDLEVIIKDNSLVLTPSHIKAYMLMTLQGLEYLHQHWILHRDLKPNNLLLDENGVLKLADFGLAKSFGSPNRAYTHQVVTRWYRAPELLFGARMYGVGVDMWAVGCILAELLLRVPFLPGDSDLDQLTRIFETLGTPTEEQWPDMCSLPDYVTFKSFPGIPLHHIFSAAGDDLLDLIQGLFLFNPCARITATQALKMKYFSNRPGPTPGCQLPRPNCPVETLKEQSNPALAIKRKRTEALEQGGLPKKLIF
Sequence of STK25 (human) (O00506 whole entry, looked up): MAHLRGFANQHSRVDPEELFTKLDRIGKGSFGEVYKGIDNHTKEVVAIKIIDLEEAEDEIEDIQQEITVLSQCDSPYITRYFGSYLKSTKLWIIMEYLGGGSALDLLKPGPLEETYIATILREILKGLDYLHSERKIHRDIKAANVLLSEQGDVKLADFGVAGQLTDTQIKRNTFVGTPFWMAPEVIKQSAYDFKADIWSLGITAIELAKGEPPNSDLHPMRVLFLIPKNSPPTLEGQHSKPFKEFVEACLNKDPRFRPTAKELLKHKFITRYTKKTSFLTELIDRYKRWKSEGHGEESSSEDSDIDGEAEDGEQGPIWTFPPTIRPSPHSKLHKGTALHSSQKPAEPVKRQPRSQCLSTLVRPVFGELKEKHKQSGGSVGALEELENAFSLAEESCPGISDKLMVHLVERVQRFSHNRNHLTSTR

O=C(Nc1ccc(Oc2ncnc3[nH]ncc23)cc1)Nc1ccc(Cl)c(C(F)(F)F)c1
kinase still bound, per cent of control [1]: 46%
kinase still bound, per cent of control (ALK (human)): 57%
kinase still bound, per cent of control (BTK (human)): 96%
kinase still bound, per cent of control (CAMK2A (human)): 90%
kinase still bound, per cent of control (CAMK4 (human)): 100%
kinase still bound, per cent of control (CDK2 (human)): 64%
kinase still bound, per cent of control (CDK7 (human)): 11%
kinase still bound, per cent of control (CDK9 (human)): 56%
kinase still bound, per cent of control (CSNK1G2 (human)): 94%
kinase still bound, per cent of control (DCLK1 (human)): 82%
kinase still bound, per cent of control (DMPK (human)): 100%
kinase still bound, per cent of control (ERBB2 (human)): 100%
kinase still bound, per cent of control (FGFR3 (human)): 80%
kinase still bound, per cent of control (HCK (human)): 32%
kinase still bound, per cent of control (IGF1R (human)): 100%
kinase still bound, per cent of control (IKBKB (human)): 91%
kinase still bound, per cent of control [2]: 0.15%
kinase still bound, per cent of control (LRRK2 (human)): 83%
kinase still bound, per cent of control (MAP2K1 (human)): 76%
kinase still bound, per cent of control (MAP3K13 (human)): 92%
kinase still bound, per cent of control (MAP3K4 (human)): 87%
kinase still bound, per cent of control (MAP3K5 (human)): 90%
kinase still bound, per cent of control (MAP3K9 (human)): 100%
kinase still bound, per cent of control (MAPK11 (human)): 1.2%
kinase still bound, per cent of control (MAPK8 (human)): 85%
kinase still bound, per cent of control (MARK3 (human)): 75%
kinase still bound, per cent of control (MKNK2 (human)): 0.05%
kinase still bound, per cent of control (NEK1 (human)): 85%
kinase still bound, per cent of control (NUAK2 (human)): 73%
kinase still bound, per cent of control (PDGFRB (human)): 0%
kinase still bound, per cent of control (PIM1 (human)): 90%
kinase still bound, per cent of control (PLK4 (human)): 52%
kinase still bound, per cent of control (PRKCE (human)): 86%
kinase still bound, per cent of control (RAF1 (human)): 1%
kinase still bound, per cent of control (RIOK2 (human)): 100%
kinase still bound, per cent of control (RPS6KA3 KD1 (human)): 100%
kinase still bound, per cent of control (STK11 (human)): 97%
kinase still bound, per cent of control (STK25 (human)): 79%
kinase still bound, per cent of control (SYK (human)): 56%
kinase still bound, per cent of control (TEK (human)): 25%
kinase still bound, per cent of control (ZAP70 (human)): 100%
